Series [1] addresses T1, Bd-NDPSase (Bd3179) (Bdellovibrio bacteriovorus, UniProt Q6MIH8, E140Q).
T1 construct: gene nudF; gene cloned from HD100 chromosomal DNA into pET24a, expressed in E. coli BL21 (DE3); conventional purification, no tag mentioned; homodimer, residues numbered to 182
In words: X-ray crystal structure, […] A (soak). Type of series: binding. The conditions noted are these: crystals soaked in 5 mM ADPR for 2 days; catalytically inactive mutant; active site, no metal added.

Series [2] addresses T1, Bd-NDPSase (Bd3179). Briefly: X-ray crystal structure, […] A. The conditions noted are these: from crystals with 5 mM UDP-glucose (co-crystallization per methods, soak per results); active site, shifted toward phosphate position. In kind it is binding.
Substrate in series [3]: Nc1nc2c(ncn2[C@@H]2O[C@H](COP(=O)(O)OP(=O)(O)O[C@H]3O[C@H](CO)[C@@H](O)[C@H](O)[C@@H]3O)[C@@H](O)[C@H]2O)c(=O)[nH]1
Briefly: phosphate release assay (Ames, coupled to calf intestinal phosphatase). Type of series: biochemical, Bdellovibrio bacteriovorus. Conditions: 5 mM MgCl2, 50 mM Tris-HCl pH 8.6, 1 mM EDTA. The source says: phosphate release assay (Ames, coupled to calf intestinal phosphatase) on Bd-[…]

T1 sequence (Q6MIH8 entry or part of it E140Q): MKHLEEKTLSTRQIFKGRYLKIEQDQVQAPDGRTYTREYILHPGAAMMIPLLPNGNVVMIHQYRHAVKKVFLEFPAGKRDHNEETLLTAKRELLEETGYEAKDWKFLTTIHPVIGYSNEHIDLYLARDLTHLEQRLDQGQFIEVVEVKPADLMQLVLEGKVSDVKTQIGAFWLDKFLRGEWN

As for `Nc1ncnc2c1ncn2[C@@H]1O[C@H](COP(=O)(O)OP(=O)(O)OC[C@H]2OC(O)[C@H](O)[C@@H]2O)[C@@H](O)[C@H]1O` (stereo partly shown) [ADPR, ADP-ribose], the “X-ray crystal structure, 2.06 A (soak)” value in series [1] is reported as “E140Q Bd-NDPSase in complex with ADP-ribose (PDB ID 5C7T)”.
For `OC[C@H]1OC(O)[C@H](O)[C@@H](O)[C@@H]1O` (stereo partly shown) [glucose], the “X-ray crystal structure, 1.80 A” value in series [2] is listed as “E140Q Bd-NDPSase in complex with glucose (PDB ID 5C8L)”.

B1: Bd-NDPSase (Bd3179) (Bdellovibrio bacteriovorus HD100) (protein)
chain: MKHLEEKTLSTRQIFKGRYLKIEQDQVQAPDGRTYTREYILHPGAAMMIPLLPNGNVVMIHQYRHAVKKVFLEFPAGKRDHNEETLLTAKRELLEETGYEAKDWKFLTTIHPVIGYSNEHIDLYLARDLTHLEQRLDQGEFIEVVEVKPADLMQLVLEGKVSDVKTQIGAFWLDKFLRGEWN
notes: gene cloned from HD100 chromosomal DNA into pET24a, expressed in E. coli BL21 (DE3); conventional purification, no tag mentioned; homodimer, residues numbered to 182
Turning to B1, in series [3], the Km is 300 µM and the turnover number (kcat) worked out at 5200 s⁻¹.

What is called Km is the concentration of substrate that gives half-maximal velocity. In general, kcat refers to the number of substrate molecules converted per active site and unit of time at saturation.

These data come from publication PMC4629899, “Structural and Enzymatic Characterization of a Nucleoside Diphosphate Sugar Hydrolase from Bdellovibrio bacteriovorus” (PLoS ONE, 2015).
